Assay results from US20240334931A1, “NEMATICIDAL COMPOSITION” (ISHIHARA SANGYO KAISHA, LTD., priority 2021, published 2024).

These molecules were tested on southern root-knot nematode (Meloidogyne incognita) (assay: Test on effects against southern root-knot nematode: treated contaminated soil, cucumber pot test (Test Example 1 and Comparative Test)). Settings: 200 ppm, 10 ml poured to 200 ml contaminated soil; cucumber; two to three weeks after sowing.
Assay type: in vivo
Parameters: key: 0: No knot formed on the root at all; 1: Knots formed to a slight degree; 2: Knots formed to a moderate degree; 3: Knots formed to a heavy degree; 4: Knots formed to the heaviest degree
Method: The treated soil was put into a pot, three cucumber seeds were sown, and the pot was placed in a greenhouse. Two to three weeks after the sowing of the cucumber seeds, the root knot index was determined based on the degree of formation of root knots shown in Table 5. Each composition containing Compound No. […]-192 or B-196 at a concentration of 400 ppm and the composition containing Compound No. […] [table] […] Root knot index of 2 corresponds to a state where the proportion of healthy roots is 50% or less to the entire roots, and indicates control effects to such an extent that cucumber as a crop plant to be tested cannot healthily grow.

Row | Structure (SMILES) | root knot index
1 | CC(C)(C(=NNC=O)c1ccccc1F)n1cnc(C(F)(F)F)n1 [A-153] | 1

Same assay, conditions: 400 ppm, 10 ml poured to 200 ml contaminated soil; cucumber; two to three weeks after sowing

Row | Structure (SMILES) | root knot index
2 | O=CNN=C(c1ccccc1)C1(n2cnc(C(F)(F)F)n2)CC1 (single isomer, unassigned) [B-3] | 1
3 | O=CNN=C(c1ccc(Cl)cc1)C1(n2ccc(C(F)(F)F)n2)CC1 (single isomer, unassigned) [B-87] | 1
4 | O=CNN=C(c1ccc(F)cc1)C1(n2ccc(C(F)(F)F)n2)CC1 (single isomer, unassigned) [B-105] | 1
5 | CC(C)(C(=NNC=O)c1ccc(Cl)cc1)n1cnc(C(F)(F)F)n1 [A-90] | 1
6 | CN(C=O)N=C(c1ccc(Cl)cc1)C(C)(C)n1cnc(C(F)(F)F)n1 [A-94] | 1
7 | CCN(C=O)N=C(c1ccc(Cl)cc1)C(C)(C)n1cnc(C(F)(F)F)n1 [A-95] | 1
8 | CCCN(C=O)N=C(c1ccc(Cl)cc1)C(C)(C)n1cnc(C(F)(F)F)n1 [A-96] | 1
9 | CC(C)(C(=NNC=O)c1ccccc1Cl)n1ccc(C(F)(F)F)n1 [A-150] | 1
10 | CC(C)(C(=NNC=O)c1ccccc1Cl)n1cnc(C(F)(F)F)n1 [A-151] | 1
11 | CC(C)(C(=NNC=O)c1ccccc1F)n1ccc(C(F)(F)F)n1 [A-152] | 1
12 | CC(C)(C(=NNC=O)c1ccc(F)cc1F)n1ccc(C(F)(F)F)n1 [A-156] | 1
13 | CC(C)(C(=NNC=O)c1ccc(F)cc1F)n1cnc(C(F)(F)F)n1 [A-157] | 1
14 | CC(C)(C(=NNC=O)c1c(F)cccc1F)n1ccc(C(F)(F)F)n1 [A-160] | 1
15 | CC(C)(C(=NNC=O)c1c(F)cccc1F)n1cnc(C(F)(F)F)n1 [A-161] | 1
16 | CCN(C=O)N=C(c1ccccc1Cl)C(C)(C)n1ccc(C(F)(F)F)n1 [A-193] | 1
17 | C#CCN(C=O)N=C(c1ccccc1Cl)C(C)(C)n1ccc(C(F)(F)F)n1 [A-195] | 1
18 | CC(C)(C(=NNC=O)c1ccccc1Cl)n1cnc(C(F)F)n1 [A-198] | 1
19 | CC(C)(C(=NNC=O)c1ccccc1Cl)n1ccc(Cl)n1 [A-199] | 1
20 | CC(C)(C(=NNC=O)c1ccccc1Cl)n1cnc(Cl)n1 [A-200] | 1
21 | CC(C)(C(=NNC=O)c1ccccc1Cl)n1ccc(Br)n1 [A-201] | 1
22 | CC(C)(C(=NNC=O)c1ccccc1Cl)n1cnc(Br)n1 [A-202] | 1
23 | CC(C)(C(=NNC=O)c1ccccc1Cl)n1ccc(I)n1 [A-203] | 1
24 | CC(C)(C(=NNC=O)c1ccccc1Cl)n1ccc([N+](=O)[O-])n1 [A-205] | 1
25 | CC(C)(C(=NNC=O)c1ccccc1Cl)n1cnc([N+](=O)[O-])n1 [A-206] | 1
26 | CC(C)(C(=NNC=O)c1ccccc1Cl)n1cc(C(F)(F)F)cn1 [A-216] | 1

Row | Structure (SMILES) | root knot index
27 | CC(C)(C(=NNC=O)c1ccccc1Cl)n1cc(F)cn1 [A-217] | 1
28 | CC(C)(C(=NNC=O)c1ccccc1Cl)n1nc(Br)nc1Br [A-224] | 1
29 | CC(C)(C(=NNC=O)c1ccccc1Br)n1ccc(C(F)(F)F)n1 [A-233] | 1
30 | COCN(C=O)N=C(c1ccccc1Br)C(C)(C)n1ccc(C(F)(F)F)n1 [A-235] | 1
31 | CC(C)(C(=NNC=O)c1ccccc1I)n1ccc(C(F)(F)F)n1 [A-240] | 1
32 | CC(C)(C(=NNC=O)c1ccccc1I)n1cnc(C(F)(F)F)n1 [A-241] | 1
33 | Cc1ccccc1C(=NNC=O)C(C)(C)n1ccc(C(F)(F)F)n1 [A-244] | 1
34 | Cc1ccccc1C(=NNC=O)C(C)(C)n1cnc(C(F)(F)F)n1 [A-245] | 1
35 | Cc1ccccc1C(=NNC=O)C(C)(C)n1ccc(Cl)n1 [A-247] | 1
36 | Cc1ccccc1C(=NNC=O)C(C)(C)n1cnc(Cl)n1 [A-248] | 1
37 | Cc1ccccc1C(=NNC=O)C(C)(C)n1ccc(Br)n1 [A-249] | 1
38 | Cc1ccccc1C(=NNC=O)C(C)(C)n1ccc([N+](=O)[O-])n1 [A-251] | 1
39 | Cc1ccccc1C(=NNC=O)C(C)(C)n1cnc([N+](=O)[O-])n1 [A-252] | 1
40 | Cc1ccccc1C(=NNC=O)C(C)(C)n1ccc(C#N)n1 [A-253] | 1
41 | Cc1ccccc1C(=NNC=O)C(C)(C)n1cc(F)cn1 [A-255] | 1
42 | Cc1ccccc1C(=NNC=O)C(C)(C)n1cc([N+](=O)[O-])cn1 [A-256] | 1
43 | Cc1ccccc1C(=NNC=O)C(C)(C)n1cc(C#N)c(C(F)(F)F)n1 [A-257] | 1
44 | CC(C)(C(=NNC=O)c1ccccc1C(F)(F)F)n1cnc(C(F)(F)F)n1 [A-261] | 1
45 | COc1ccccc1C(=NNC=O)C(C)(C)n1ccc(C(F)(F)F)n1 [A-264] | 1
46 | COc1ccccc1C(=NNC=O)C(C)(C)n1cnc(C(F)(F)F)n1 [A-265] | 1
47 | CC(C)(C(=NNC=O)c1ccccc1OC(F)(F)F)n1ccc(C(F)(F)F)n1 [A-270] | 1
48 | CC(C)(C(=NNC=O)c1ccccc1OC(F)(F)F)n1ccc(Br)n1 [A-272] | 1
49 | CC(C)(C(=NNC=O)c1ccccc1OC(F)(F)F)n1cnc(C#N)n1 [A-273] | 1
50 | CC(C)(C(=NNC=O)c1cccc(F)c1)n1cnc(C(F)(F)F)n1 [A-275] | 1
51 | CC(C)(C(=NNC=O)c1cccc(F)c1)n1ccc(Cl)n1 [A-277] | 1

Row | Structure (SMILES) | root knot index
52 | CC(C)(C(=NNC=O)c1cccc(F)c1)n1cnc(Cl)n1 [A-278] | 1
53 | Cc1cccc(C(=NNC=O)C(C)(C)n2ccc(Cl)n2)c1 [A-324] | 1
54 | CC(C)(C(=NNC=O)c1cccc(C(F)(F)F)c1)n1cnc(C(F)(F)F)n1 [A-327] | 1
55 | COc1cccc(C(=NNC=O)C(C)(C)n2cnc(C(F)(F)F)n2)c1 [A-329] | 1
56 | COc1cccc(C(=NNC=O)C(C)(C)n2ccc(Cl)n2)c1 [A-330] | 1
57 | CC(C)(C(=NNC=O)c1cccc(Cl)c1Cl)n1ccc(C(F)(F)F)n1 [A-332] | 1
58 | CC(C)(C(=NNC=O)c1cc(Cl)ccc1Cl)n1ccc(C(F)(F)F)n1 [A-334] | 1
59 | CC(C)(C(=NNC=O)c1cc(Cl)ccc1Cl)n1cnc(C(F)(F)F)n1 [A-335] | 1
60 | CC(C)(C(=NNC=O)c1cccc(F)c1F)n1ccc(C(F)(F)F)n1 [A-336] | 1
61 | CC(C)(C(=NNC=O)c1cccc(F)c1F)n1cnc(C(F)(F)F)n1 [A-337] | 1
62 | CC(C)(C(=NNC=O)c1ccc(F)cc1F)n1ccc(Cl)n1 [A-344] | 1
63 | CC(C)(C(=NNC=O)c1cccc(F)c1Cl)n1ccc(C(F)(F)F)n1 [A-349] | 1
64 | CC(C)(C(=NNC=O)c1cccc(F)c1Cl)n1cnc(C(F)(F)F)n1 [A-350] | 1
65 | CC(C)(C(=NNC=O)c1cc(F)ccc1Cl)n1ccc(C(F)(F)F)n1 [A-351] | 1
66 | CC(C)(C(=NNC=O)c1cccc2c1OC(F)(F)O2)n1ccc(C(F)(F)F)n1 [A-410] | 1
67 | CC(C)(C(=NNC=O)c1cccc2c1OC(F)(F)O2)n1ccc(Cl)n1 [A-412] | 1
68 | CC(C)(C(=NNC=O)c1cccc2c1OC(F)(F)O2)n1cnc(Cl)n1 [A-413] | 1
69 | CC(C)(C(=NNC=O)c1cccc2c1OC(F)(F)O2)n1ccc(Br)n1 [A-414] | 1
70 | CC(C)(C(=NNC=O)c1cccc2c1OC(F)(F)O2)n1cnc(C#N)n1 [A-417] | 1
71 | CC(C)(C(=NNC=O)c1cccc2c1OC(F)(F)O2)n1cnc([N+](=O)[O-])n1 [A-419] | 1
72 | CC(C)(C(=NNC=O)c1cccc2c1OC(F)(F)O2)n1cnc(C(F)F)n1 [A-424] | 1
73 | CSc1ccn(C(C)(C)C(=NNC=O)c2cccc(F)c2)n1 [A-430] | 1
74 | O=CNN=C(c1ccccc1)C1(n2ccc(C(F)(F)F)n2)CCC1 [B-81] | 1
75 | O=CNN=C(c1ccccc1Cl)C1(n2ccc(C(F)(F)F)n2)CC1 [B-148] | 1

Same assay, conditions: Comparative Test, active ingredient concentration 50 ppm; otherwise as Test Example 1 (cucumber)

Row | Structure (SMILES) | root knot index
76 | CC(C(=NNC=O)c1ccccc1)n1ccc(C(F)(F)F)n1 (centres unmarked) [Compound A-1 (WO2020/ 179910), reference compound] | 2
77 | CC(C(=NNC=O)c1ccccc1)n1cnc(C(F)(F)F)n1 (centres unmarked) [Compound A-3 (WO2020/ 179910), reference compound] | 2
78 | CC(C(=NNC=O)c1cccc(Cl)c1)n1ccc(C(F)(F)F)n1 (centres unmarked) [Compound A-58 (WO2020/ 179910), reference compound] | 2

The molecules below were run on soybean cyst nematode (Heterodera glycines) (assay: Test on effects against soybean cyst nematode: treated contaminated soil, soybean pot test (Test Example 3)). Settings: 800 ppm, 10 ml poured to 200 ml contaminated soil, about one month after sowing.
Assay type: in vivo
Parameters: key: 0: No parasitic cyst observed on the roots at all; 1: Parasitic cyst observed to a slight degree; 2: Parasitic cyst observed to a moderate degree; 3: Parasitic cyst observed to a heavy degree; 4: Parasitic cyst observed densely on the entire roots
Method: . The treated soil was put into a pot, three soybean seeds were sown, and the pot was placed in a greenhouse. About one month after the sowing of the soybean seeds, the parasite index was determined based on the cyst parasite level on the roots shown in Table 7.

Row | Structure (SMILES) | parasite index
79 | O=CNN=C(c1ccccc1)C1(n2cnc(C(F)(F)F)n2)CC1 (single isomer, unassigned) [B-3] | 1
80 | CN(C=O)N=C(c1ccc(Cl)cc1)C(C)(C)n1ccc(C(F)(F)F)n1 [A-91] | 1
81 | COCN(C=O)N=C(c1ccc(F)cc1)C(C)(C)n1ccc(C(F)(F)F)n1 [A-109] | 1
82 | CN(C=O)N=C(c1ccccc1)C1(n2cnc(C(F)(F)F)n2)CC1 [B-6] | 1
83 | COCN(C=O)N=C(c1ccccc1)C1(n2cnc(C(F)(F)F)n2)CC1 [B-24] | 1
